In data set [1] the test system is Rattus norvegicus. The data set can be described thus: Neurotoxicity in Sprague-Dawley rat assessed as behavioral change at 30 mg/kg, ip measured at 4 hrs post dose. Conditions: in vivo. In kind it is toxicity, organism-based.
Data set [2] has as its system Rattus norvegicus. The experiment in a line: Neurotoxicity in Sprague-Dawley rat assessed as behavioral change at 30 mg/kg, ip measured at 0.5 hrs post dose. In kind it is toxicity, organism-based. To be noted: in vivo.
For data set [3], the system named is Mus musculus. The experiment in a line: Neurotoxicity in po dosed mouse assessed as induction of motor impairment by measuring time to peak effect by rotarod method. Conditions: in vivo. In kind it is toxicity, organism-based.
The subject of data set [4] is Rattus norvegicus. The data set can be described thus: Anticonvulsant activity in po dosed pentylenetetrazole induced seizure Sprague-Dawley rat model assessed as no observable episode of clonic convulsion of at least 5 secs by measuring time to peak effect. In kind it is functional.
Data set [5] concerns Mus musculus. The experiment in a line: Anticonvulsant activity in maximal electroshock induced seizure mouse model assessed as suppression in hindlimb tonic extension at 100 mg/kg, ip measured at 0.5 hrs post dose. In kind it is functional, organism-based.
The nature of data set [6]: Protection index, ratio of TD50 for neurotoxicity in po dosed Sprague-Dawley rat model to ED50 for po dosed pentylenetetrazole induced seizure Sprague-Dawley rat model. In kind it is toxicity, organism-based. To be noted: in vivo, read-out: Ratio TD50/ED50.
The target of data set [7] is Type-2 angiotensin II receptor (Homo sapiens) (UniProt P50052). The experiment in a line: Displacement of [125I]CGP 42112A from human recombinant AT2 receptor expressed in HEK293 cells at 100 uM measured after 4 hrs by scintillation counting method relative to control. In kind it is cell-based. On the technique in general: Loss of bound radioactivity is the signal in a displacement assay; it reports binding, not function.

In data set [8] the test system is Rattus norvegicus. The data set can be described thus: Anticonvulsant activity in po dosed pentylenetetrazole induced seizure Sprague-Dawley rat model assessed as no observable episode of clonic convulsion of at least 5 secs. In kind it is functional.
For data set [9], the system named is Rattus norvegicus. The experiment in a line: Neurotoxicity in Sprague-Dawley rat assessed as behavioral change at 30 mg/kg, ip measured at 1 hr post dose. In kind it is toxicity, organism-based. Conditions: in vivo.
Data set [10] concerns Rattus norvegicus. The data set can be described thus: Neurotoxicity in Sprague-Dawley rat assessed as behavioral change at 30 mg/kg, ip measured at 2 hrs post dose. In kind it is toxicity, organism-based. To be noted: in vivo.
Data set [11] has as its system Rattus norvegicus. The data set can be described thus: Anticonvulsant activity in maximal electroshock induced seizure Sprague-Dawley rat model assessed as suppression in hindlimb tonic extension at 30 mg/kg, po measured at 1 hr post dose. In kind it is functional, organism-based. (In the maximal electroshock model the usual endpoint is tonic extension of the hind limbs.)

For data set [12], the system named is Mus musculus. The data set can be described thus: Anticonvulsant activity in pentylenetetrazole induced seizure mouse model assessed as no observable episode of clonic convulsion of at least 5 secs at 100 mg/kg, ip measured at 0.5 hrs post dose. In kind it is functional, organism-based.
Data set [13] addresses Neuropeptide Y receptor type 1 (Homo sapiens) (UniProt P25929). The data set can be described thus: Displacement of [125I]peptide YY from Y1 in human SK-N-MC cells receptor at 100 uM measured after 120 mins by scintillation counting method relative to control. In kind it is cell-based.
In data set [14] the target is Muscarinic acetylcholine receptor M2 (Homo sapiens) (UniProt P08172). The experiment in a line: Displacement of [3H]AF-DX384 from human recombinant M2 receptor expressed in CHO cells at 100 uM measured after 60 mins by scintillation counting method relative to control. In kind it is cell-based.
Data set [15] deals with Mus musculus. The experiment in a line: Anticonvulsant activity in pentylenetetrazole induced seizure mouse model assessed as no observable episode of clonic convulsion of at least 5 secs at 300 mg/kg, ip measured at 4 hrs post dose. In kind it is functional, organism-based.
The target of data set [16] is Histamine H1 receptor (Homo sapiens) (UniProt P35367). The data set can be described thus: Displacement of [3H]pyrilamine from human recombinant H1 receptor expressed in HEK293 cells at 100 uM measured after 60 mins by scintillation counting method relative to control. In kind it is cell-based.
The target of data set [17] is Muscarinic acetylcholine receptor M1 (Homo sapiens) (UniProt P11229). The data set can be described thus: Displacement of [3H]pirenzepine from human recombinant M1 receptor expressed in CHO cells at 100 uM measured after 60 mins by scintillation counting method relative to control. In kind it is cell-based.
The subject of data set [18] is Rattus norvegicus. The experiment in a line: Neurotoxicity in po dosed Sprague-Dawley rat assessed as behavioral change by measuring time to peak effect. To be noted: in vivo. In kind it is toxicity, organism-based.
Data set [19] has as its system Mus musculus. The experiment in a line: Anticonvulsant activity in 6-Hz induced seizure mouse model assessed as restoration of normal activity within 10 secs from stimulation at 100 mg/kg, ip at 44 mA measured at […] post dose. In kind it is functional, organism-based.
Data set [20] addresses Galanin receptor type 2 (Homo sapiens) (UniProt O43603). The data set can be described thus: Displacement of [125I]galanin from human recombinant GAL2 receptor expressed in CHO cells at 100 uM measured after 120 mins by scintillation counting method relative to control. In kind it is cell-based.
For data set [21], the system named is Mus musculus. The data set can be described thus: Neurotoxicity in mouse assessed as induction of motor impairment at 100 mg/kg, ip measured at 0.5 hrs post dose by rotarod method. In kind it is toxicity, organism-based. To be noted: in vivo. On the technique in general: The rotarod test checks motor coordination on a turning rod.
In data set [22] the test system is Rattus norvegicus. The experiment in a line: Anticonvulsant activity in maximal electroshock induced seizure Sprague-Dawley rat model assessed as suppression in hindlimb tonic extension at 30 mg/kg, ip measured at […] post dose. In kind it is functional, organism-based.
The target in data set [23] is 5-hydroxytryptamine receptor 3A (Homo sapiens) (UniProt P46098). The experiment in a line: Displacement of [3H]BRL 43694 from human recombinant 5HT3 receptor expressed in CHO cells at 100 uM measured after 120 mins by scintillation counting method relative to control. In kind it is cell-based.

Activity calls are given as the source filed them. The rule behind the calls is not given here. Where only a bound is given, the exact number is not on record here.

What is called inhibition is the drop in the measured response relative to a control, in per cent. The ED50 is the dose at which the effect has come halfway, by size or by number of responders.

Sequence of Galanin receptor type 2 (Homo sapiens) (O43603 whole entry): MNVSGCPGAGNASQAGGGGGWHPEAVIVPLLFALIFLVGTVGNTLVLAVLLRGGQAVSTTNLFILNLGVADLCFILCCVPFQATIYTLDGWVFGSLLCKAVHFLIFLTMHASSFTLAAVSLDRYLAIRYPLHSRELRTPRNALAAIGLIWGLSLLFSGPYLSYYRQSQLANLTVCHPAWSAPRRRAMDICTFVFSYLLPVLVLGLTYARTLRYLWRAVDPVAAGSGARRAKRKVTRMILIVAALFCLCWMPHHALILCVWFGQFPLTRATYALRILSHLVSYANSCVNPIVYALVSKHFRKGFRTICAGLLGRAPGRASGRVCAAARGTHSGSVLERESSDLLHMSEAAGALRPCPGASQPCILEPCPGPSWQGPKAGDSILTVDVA
Sequence of Muscarinic acetylcholine receptor M2 (Homo sapiens) (P08172 whole entry): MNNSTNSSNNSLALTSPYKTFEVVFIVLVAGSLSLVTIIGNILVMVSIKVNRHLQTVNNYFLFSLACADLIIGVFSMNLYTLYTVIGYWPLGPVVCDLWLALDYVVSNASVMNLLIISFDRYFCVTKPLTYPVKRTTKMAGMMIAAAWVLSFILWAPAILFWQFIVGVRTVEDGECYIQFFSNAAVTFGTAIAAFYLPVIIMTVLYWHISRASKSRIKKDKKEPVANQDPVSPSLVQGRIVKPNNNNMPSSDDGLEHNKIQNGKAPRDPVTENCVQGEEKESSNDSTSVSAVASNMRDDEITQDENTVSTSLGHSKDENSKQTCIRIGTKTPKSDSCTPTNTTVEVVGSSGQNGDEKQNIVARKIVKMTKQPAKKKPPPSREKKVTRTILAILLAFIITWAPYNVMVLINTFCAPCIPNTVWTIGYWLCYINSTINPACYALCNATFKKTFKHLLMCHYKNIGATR
Sequence of Muscarinic acetylcholine receptor M1 (Homo sapiens) (P11229 whole entry): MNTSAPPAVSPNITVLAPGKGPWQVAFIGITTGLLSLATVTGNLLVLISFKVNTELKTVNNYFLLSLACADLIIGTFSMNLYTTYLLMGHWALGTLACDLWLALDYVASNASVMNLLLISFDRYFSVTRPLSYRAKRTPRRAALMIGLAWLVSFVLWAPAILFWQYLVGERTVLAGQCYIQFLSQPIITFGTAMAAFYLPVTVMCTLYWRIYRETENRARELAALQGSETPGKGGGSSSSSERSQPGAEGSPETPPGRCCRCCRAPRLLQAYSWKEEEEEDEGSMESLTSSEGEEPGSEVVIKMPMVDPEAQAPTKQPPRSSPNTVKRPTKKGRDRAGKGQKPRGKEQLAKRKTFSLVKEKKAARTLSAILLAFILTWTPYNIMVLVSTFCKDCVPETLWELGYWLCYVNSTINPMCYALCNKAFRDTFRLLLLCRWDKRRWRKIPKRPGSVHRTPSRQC
Sequence of Type-2 angiotensin II receptor (Homo sapiens) (P50052 whole entry): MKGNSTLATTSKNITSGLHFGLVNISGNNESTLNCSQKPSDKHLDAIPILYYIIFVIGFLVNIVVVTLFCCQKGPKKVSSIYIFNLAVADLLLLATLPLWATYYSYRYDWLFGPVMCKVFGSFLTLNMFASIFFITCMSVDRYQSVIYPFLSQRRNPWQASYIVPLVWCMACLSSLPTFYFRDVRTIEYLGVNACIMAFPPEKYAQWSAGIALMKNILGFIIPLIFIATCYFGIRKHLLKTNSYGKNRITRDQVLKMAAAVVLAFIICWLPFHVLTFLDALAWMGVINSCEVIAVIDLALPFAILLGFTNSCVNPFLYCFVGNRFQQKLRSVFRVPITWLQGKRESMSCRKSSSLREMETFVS
Sequence of Neuropeptide Y receptor type 1 (Homo sapiens) (P25929 whole entry): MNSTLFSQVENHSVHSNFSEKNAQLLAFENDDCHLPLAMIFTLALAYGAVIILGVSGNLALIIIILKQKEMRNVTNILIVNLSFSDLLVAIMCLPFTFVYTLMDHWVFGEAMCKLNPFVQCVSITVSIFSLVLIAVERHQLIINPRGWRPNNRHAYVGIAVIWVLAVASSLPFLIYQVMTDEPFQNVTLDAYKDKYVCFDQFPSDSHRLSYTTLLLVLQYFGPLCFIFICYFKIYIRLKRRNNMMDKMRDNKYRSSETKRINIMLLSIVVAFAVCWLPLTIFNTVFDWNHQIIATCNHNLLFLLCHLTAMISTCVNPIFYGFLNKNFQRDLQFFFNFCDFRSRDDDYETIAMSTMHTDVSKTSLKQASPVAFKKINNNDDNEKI
Sequence of Histamine H1 receptor (Homo sapiens) (P35367 whole entry): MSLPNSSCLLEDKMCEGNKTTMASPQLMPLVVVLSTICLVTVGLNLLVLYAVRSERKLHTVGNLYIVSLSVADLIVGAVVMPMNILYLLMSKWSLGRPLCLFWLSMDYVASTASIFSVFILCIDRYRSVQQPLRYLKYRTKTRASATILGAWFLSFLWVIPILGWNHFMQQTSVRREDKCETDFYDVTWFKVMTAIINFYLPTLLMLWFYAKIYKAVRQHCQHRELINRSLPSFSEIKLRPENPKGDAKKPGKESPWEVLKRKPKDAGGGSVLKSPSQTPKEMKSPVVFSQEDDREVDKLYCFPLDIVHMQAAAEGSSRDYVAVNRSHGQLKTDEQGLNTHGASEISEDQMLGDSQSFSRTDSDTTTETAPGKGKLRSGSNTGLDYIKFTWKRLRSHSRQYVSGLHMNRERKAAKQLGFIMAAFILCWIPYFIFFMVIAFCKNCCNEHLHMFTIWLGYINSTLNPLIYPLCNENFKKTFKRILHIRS
Sequence of 5-hydroxytryptamine receptor 3A (Homo sapiens) (P46098 whole entry): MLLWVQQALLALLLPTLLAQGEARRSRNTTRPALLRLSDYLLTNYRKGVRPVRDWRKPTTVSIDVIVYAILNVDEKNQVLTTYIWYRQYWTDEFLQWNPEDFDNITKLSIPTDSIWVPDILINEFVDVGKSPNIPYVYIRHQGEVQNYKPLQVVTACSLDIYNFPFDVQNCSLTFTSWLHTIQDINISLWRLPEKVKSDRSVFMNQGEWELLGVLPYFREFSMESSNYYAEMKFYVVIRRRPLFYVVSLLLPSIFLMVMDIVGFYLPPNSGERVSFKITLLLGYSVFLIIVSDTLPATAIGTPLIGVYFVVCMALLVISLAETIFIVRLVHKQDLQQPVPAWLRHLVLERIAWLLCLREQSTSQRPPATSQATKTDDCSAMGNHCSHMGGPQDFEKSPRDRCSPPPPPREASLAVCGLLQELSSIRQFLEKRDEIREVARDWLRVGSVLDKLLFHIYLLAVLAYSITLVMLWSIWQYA

Take `Cc1ccccc1/C=C/C(=O)N[C@@H](C)CO`: the Activity result in the data set with Rattus norvegicus [1], in the data set on Rattus norvegicus [2], in the data set with Rattus norvegicus [9] and with Rattus norvegicus [10] was “Non-Toxic” throughout. In addition, the Time in the data set on Mus musculus [3] was found to be 0.25 h; in the data set with Rattus norvegicus [4], 1 h. The outcome in the data set on Mus musculus [5] and with Rattus norvegicus [11] was Active. The selectivity ratio in data set [6] was greater than 7.18. Besides, in [7], the inhibition is 2.6%. Moreover, the median effective dose (ED50) with Rattus norvegicus [8] was found to be 69.6 mg/kg.
Consider `CC(O)CNC(=O)/C=C/c1ccc(Cl)cc1` (stereo not drawn), for which the outcome in the data set with Mus musculus [12] and in the data set with Mus musculus [15] was Active. Moreover, the inhibition in data set [13] is -5.8%; in [14], -2.8%; in data set [16], -10%; in data set [17], -9.8%.
In the case of `CCC(CO)NC(=O)/C=C/c1ccc(Cl)cc1` (stereo not drawn), in the data set with Rattus norvegicus [18], the Time was 4 h. In addition, the result in the data set on Mus musculus [19] and with Rattus norvegicus [22] was Active. Moreover, the inhibition in data set [20] was -7.3%; in [23], -1.6%. Besides, the Activity entry with Mus musculus [21] is reported as “Non-Toxic”.
